According to US20260215419A1, “PLANT EXTRACTS WITH HERBICIDAL ACTIVITY” (Agrematch Ltd., priority 2023, published 2026):

Columns and labels:
Type in all cases: in vivo
Amaranthus palmeri = assay: Post-emergence herbicidal activity, visual damage score 0-100; details: Table 4; 7-day old plants; 0.8 ml per 80 cm^2 pot; scored 13 days after application; average of five pots; synthetic Rhein 1 gram/liter (1000 g/ha) in 2% MIPA, 2% DASH, 0.25% Genapol
Procedure: (§1) Damage assessment: Herbicidal activity was assessed and scored by visual inspection of the plants in comparison to plants treated with the formulation alone (with no plant extract) as control. Activity score is in the range of 0 to 100, where 0 represents no herbicidal activity like control plants and 100 represents the maximal herbicidal activity (i.e., total death of the plant).
(§2) The herbicidal activity of Rhein-containing extracts was determined by post-emergence application on 8-day old plants (weeds) of the Amaranthus palmeri and Setaria viridis species that were grown at 16 hours/8 hours day/night cycles at 30° C./25° C., respectively. Leaf stage was typically 4-6 for A. palmeri and 3-4 for S. viridis. […]
(§3) Herbicidal activity was assessed and scored 4 days after application by visual inspection of the plants in comparison to plants treated with the control solution alone (with no active ingredient). […]
(§4) Herbicidal activity of extract sample A-1b was determined by post-emergence application on 8-day old plants (weeds) of the A. palmeri and S. viridis species and 11-day old plants (weeds) of Abutilon theophrasti, Solanum nigrum, Echinochloa colonum, Phalaris canarinesis and Lolium multiflorum that were grown at 16 hours/8 hours day/night cycles at 30° C./25° C., respectively. […]
(§5) Herbicidal activity was assessed and scored 13 days after application, as described hereinabove. […]

Setaria viridis = assay: as above; details: Table 4; 7-day old plants; 0.8 ml per 80 cm^2 pot; scored 13 days after application; average of five pots; synthetic Rhein 1 gram/liter (1000 g/ha)
Procedure: as §1, §2, §3, §4, §5

Solanum nigrum = assay: Post-emergence weed panel, visual damage score 0-100; details: Table 4; 8-day old plants; 0.8 ml per 80 cm^2 pot; scored 13 days after application; average of five pots; synthetic Rhein 1 gram/liter (1000 g/ha)
Procedure: Damage assessment: Herbicidal activity was assessed and scored by visual inspection of the plants in comparison to plants treated with the formulation alone (with no plant extract) as control. Activity score is in the range of 0 to 100, where 0 represents no herbicidal activity like control plants and 100 represents the maximal herbicidal activity (i.e., total death of the plant). Herbicidal activity of extract sample A-1b was determined by post-emergence application on 8-day old plants (weeds) of the A. palmeri and S. viridis species and 11-day old plants (weeds) of Abutilon theophrasti, Solanum nigrum, Echinochloa colonum, Phalaris canarinesis and Lolium multiflorum that were grown at 16 hours/8 hours day/night cycles at 30° C./25° C., respectively. Leaf stage was typically 4-6 for A. palmeri, 3-4 for S. viridis, 3 for A. theophrasti and S. nigrum, 4 for E. colonum, and 2 for P. canarinesis and L. multiflorum. […] Herbicidal activity was assessed and scored 3 days after application, as described hereinabove. Herbicidal activity was determined by post-emergence application on 7-day old plants (weeds) of the A. palmeri and S. viridis species and 8-day old plants (weeds) of S. nigrum, and C. quinoa that were grown at 16 hours/8 hours day/night cycles at 30° C./25° C., respectively. […] Herbicidal activity was assessed and scored 13 days after application, as described hereinabove.

Chenopodium quinoa = assay: as above; details: Table 4; 8-day old plants; 0.8 ml per 80 cm^2 pot; scored 13 days after application; average of five pots; synthetic Rhein 1 gram/liter (1000 g/ha)
Procedure: Damage assessment: Herbicidal activity was assessed and scored by visual inspection of the plants in comparison to plants treated with the formulation alone (with no plant extract) as control. Activity score is in the range of 0 to 100, where 0 represents no herbicidal activity like control plants and 100 represents the maximal herbicidal activity (i.e., total death of the plant). Herbicidal activity was determined by post-emergence application on 7-day old plants (weeds) of the A. palmeri and S. viridis species and 8-day old plants (weeds) of S. nigrum, and C. quinoa that were grown at 16 hours/8 hours day/night cycles at 30° C./25° C., respectively. Leaf stage was typically 4-6 for A. palmeri, 3-4 for S. viridis, and 4 for S. nigrum and C. quinoa. Each treatment contained five 80 cm^2 pots, each containing about 4 plants of one of the tested weed species. Each pot was sprayed with 0.8 ml of either: • 1. the exemplary extract sample A-1b, in which plant source A powder was mixed with solution 1b for 1.5 hours before filtration, or • 2. 1 gram/liter synthetic Rhein molecule dissolved in 2% MIPA, 2% DASH and 0.25% Genapol solution, which is equivalent to 1000 g/ha. Herbicidal activity was assessed and scored 13 days after application, as described hereinabove.

What does the source list for `O=C(O)c1cc(O)c2c(c1)C(=O)c1cccc(O)c1C2=O` [Synthetic Rhein, Rhein]?
Score (Amaranthus palmeri) (Amaranthus palmeri): 100; Score (Setaria viridis) (Setaria viridis): 97; Score (Solanum nigrum) (Solanum nigrum): 100; Score (Chenopodium quinoa) (Chenopodium quinoa): 100
